Test results reported in patent US20100209486A1, “Method of enhancing CoenzymeQ10 levels in mammals” (priority 2009, published 2010).

Columns and labels:
[1] = system: isolated guinea pig hearts; experiment: Reperfusion-induced ventricular fibrillation in isolated ischemic/reperfused hearts from orally treated guinea pigs; assay type: in vivo; conditions: 5 mg/kg/day oral for 4 weeks; 30 min global ischemia then reperfusion; drug-free control 92%
Experimental: FIG. 1. The incidence of reperfusion-induced ventricular fibrillation (VF). Guinea pigs were orally treated with a daily dose of 5 mg/kg of CoQ10 or CoQ9 or vehicle control for 4 weeks, and then hearts were excised, and isolated for perfusion via Langendorff mode and subjected to 30 min of global ischemia followed by 120 min of reperfusion. N=12 in each group, *p<0.05 compared to the drug-free control (C) group.
(§1) Experimental studies were designed to determine if CoQ9 could protect guinea pig hearts from ischemia reperfusion injury. Myocardial ischemia reperfusion injury model is the most widely accepted experimental method for assessment of parameters related to cardio-protection. […] Cardioprotection was assessed by evaluating left ventricular function, ventricular arrhythmias, myocardial infarct size and cardiomyocyte apoptosis.
Protective effect of CoQ9 and CoQ10 against from Ventricular Fibrillation (VF): Healthy Male Hartley guinea pigs of about 350-400 gm body weight were randomly divided into three groups, Control, CoQ9 and CoQ10. […] Epicardial ECG was recorded through out the experiment, by attaching two silver electrodes directly to the myocardium and data collected using a data acquisition system (ADInstruments, Powerlab, Castle Hill, Australia). ECGs were analyzed to determine ventricular fibrillation (VF) and ventricular tachycardia (VT). […]

[2] = system: isolated guinea pig hearts; experiment: Cardiomyocyte apoptosis (TUNEL) in isolated ischemic/reperfused guinea pig hearts; assay type: in vivo; conditions: 5 mg/kg/day oral for 4 weeks; end of reperfusion; percent of total myocyte population; control 21±2%
Experimental: FIG. 2/B. Effects of CoQ10 and CoQ9 on cardiomyocyte apoptosis in isolated guinea pig hearts subjected to 30 min of ischemia followed by 120 min of reperfusion. The bars represent mean±SD of cardiomyocyte apoptosis for control, CoQ10 and CoQ9 supplemented groups. *p<0.05 compared to the untreated age-matched ischemic/reperfused drug-free control (C) value.
as §1
CoQ9 and CoQ10 treatment reduces apoptosis of cardiomyocytes: Animal preparation, drug pretreatment and isolated working heart preparation were done as described in example 1. […] The fluorescence staining was viewed with a confocal laser microscope. The number of apoptotic cells was counted and expressed as a percent of total myocyte population. […] Apoptosis of cardiomyocytes determined by Tunel method in control group was about 21±2% at the end of reperfusion.

SMILES	incidence of reperfusion-induced ventricular fibrillation (VF) [1]	apoptotic cardiomyocytes (Tunel method) [2]
COC1=C(OC)C(=O)C(C/C=C(\C)CC/C=C(\C)CC/C=C(\C)CC/C=C(\C)CC/C=C(\C)CC/C=C(\C)CC/C=C(\C)CC/C=C(\C)CCC=C(C)C)=C(C)C1=O [CoQ9, Coenzyme Q9]	8%	7±1.5%
COC1=C(OC)C(=O)C(C/C=C(\C)CC/C=C(\C)CC/C=C(\C)CC/C=C(\C)CC/C=C(\C)CC/C=C(\C)CC/C=C(\C)CC/C=C(\C)CC/C=C(\C)CCC=C(C)C)=C(C)C1=O [CoQ10, Coenzyme Q10, reference compound]	25%	6±1%
